We go through 19 molecules from patent publication US10800754B2, “Heterocyclic amide compound” (TAKEDA PHARMACEUTICAL COMPANY LIMITED, priority 2016, dated 2020).

The target in this experiment is T1, human PRS protein (Homo sapiens, UniProt P07814).
T1 construct: to construct His-Avi-hEPRS (998-1512) expression plasmid; His tag (N); Avi tag (N); TEV cleavage site (ENLYFQ/GS, encoded by forward primer hEPRS-TEV-NheF) (N); made in house; host or cells: E. coli BL21(DE3)
T1 sequence (P07814 998-1512): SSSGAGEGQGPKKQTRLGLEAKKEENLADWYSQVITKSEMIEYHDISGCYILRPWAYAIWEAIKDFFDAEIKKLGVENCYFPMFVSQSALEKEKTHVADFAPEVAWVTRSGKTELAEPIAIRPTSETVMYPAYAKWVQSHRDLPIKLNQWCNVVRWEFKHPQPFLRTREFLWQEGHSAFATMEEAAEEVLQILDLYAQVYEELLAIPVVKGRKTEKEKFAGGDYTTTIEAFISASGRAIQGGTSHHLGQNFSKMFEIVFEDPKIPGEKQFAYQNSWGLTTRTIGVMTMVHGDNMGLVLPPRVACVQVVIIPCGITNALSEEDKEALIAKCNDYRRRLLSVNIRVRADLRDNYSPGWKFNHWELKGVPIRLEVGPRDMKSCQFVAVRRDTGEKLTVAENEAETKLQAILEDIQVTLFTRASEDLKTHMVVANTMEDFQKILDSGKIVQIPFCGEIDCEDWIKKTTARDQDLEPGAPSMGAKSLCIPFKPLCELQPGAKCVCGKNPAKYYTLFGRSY
As to the kind of experiment: PRS inhibitory activity (ATP/[32P]pyrophosphate exchange enzyme reaction). The experiment is classed as biochemical. As to conditions: 300 nM test compound; recombinant human PRS (EPRS 998-1512); read-out: inhibitory rate (%) of PRS. The protocol:
The PRS inhibitory activity of the compounds of the present invention was evaluated by the following method.
An expression plasmid of Catalytic Domain of human EPRS was obtained by PCR using human skeletal muscle cDNA Library (Takara Bio Inc.) as a template and 2 kinds of Primers 5′-[…]-3′ (hEPRS-TEV-NheF) (SEQ ID NO: 1) and 5′-[…]-3′ (hEPRS-St-Not-R) (SEQ ID NO: 2). PCR was performed using PrimeStar GXL DNA Polymerase (Takara Bio Inc.) and included (1) 98° C., 1 min, (2) cycles of 98° C., 10 sec, 65° C., 10 sec, 72° C., 1 min, and (3) reaction at 72° C., 1 min. This was cleaved with Nhe I and Not I (Takara Bio Inc.) and inserted using Ligation High (TOYOBO CO., LTD.) into the Nhe I/Not I site of pET21a (Novagen) with His-Avitag inserted thereinto. This was introduced into ECOS JM109 (NIPPON GENE CO., LTD.) to construct His-Avi-hEPRS (998-1512) expression plasmid.
Recombinant human PRS protein was prepared by transforming the His-Avi-hEPRS (998-1512) expression plasmid prepared above into ECOS Competent E. coli BL21(DE3) (NIPPON GENE CO., LTD.). Escherichia coli obtained by transformation was inoculated into 300 mL of LB medium (1% peptone, 0.5% yeast extract, 0.5% sodium chloride, 0.01% ampicillin) and cultured at 30° C. for 16 hr. The obtained culture medium was transferred into a jar culture tank charged with 6 L of the main fermentation medium (0.3% potassium dihydrogen phosphate, 0.6% disodium hydrogen phosphate, 0.1% ammonium chloride, 0.05% sodium chloride, 0.024% magnesium sulfate, 0.02% NEWPOL LB-625, 1.5% sorbitol, 1.5% casamino acid, 0.5% yeast extract, 0.01% ampicillin) and culturing was started at 37° C., quantity of airflow 5 L/min, stirring rotating speed 400 rpm. At the time point when the turbidity of the culture medium reached about 550 Klett units, the culture temperature was lowered to 16° C., isopropyl-β-D-thiogalactopyranoside (IPTG) was added to the final concentration 0.1 mM, and culturing was performed for another 16 hr to induce expression of human PRS. After completion of culturing, the culture medium was centrifuged at 5,000 rpm for 10 min. The obtained human PRS expressing Escherichia coli was suspended in a buffer containing 50 mM Tris-HCl (pH 8.0), 150 mM NaCl, 1 mM DTT, 5 U/ml Benzonase, 20 mM Imidazole and sonicated using Sonifier (BRANSON). The homogenate was centrifuged (33,000×G, 60 min, Beckman Coulter), the obtained supernatant was subjected to adsorption by passage through Ni-NTA Superflow (QIAGEN) column equilibrated in advance with 50 mM Tris-HCl (pH 8.0), 300 mM NaCl, 1 mM DTT, and elution was performed with a buffer containing 50 mM Tris-HCl (pH 8.0), 300 mM NaCl, 1 mM DTT, 250 mM Imidazole. Furthermore, gel filtration was performed using […] equilibrated in advance with a buffer containing 50 mM Tris-HCl (pH 8.0), 150 mM NaCl, 1 mM DTT, 10% glycerol to give purified human PRS protein. The protein concentration was measured using BCA Protein Assay Kit (PIERCE) and BSA as the standard.
A test compound was dissolved in 5 μL of an assay buffer (50 mM Tris-HCl (pH 7.5), 20 mM KCl, 1 mM DTT, 0.01% Tween 20) and incubated for 60 min with 5 μL of 40 nM human PRS protein dissolved in the assay buffer containing 40 mM MgCl2. An enzyme reaction of the human PRS protein was started by adding 10 μL of a substrate solution containing 300 μM ATP, 160 μM L-Proline, 400 μM pyrophosphate, [^32P]pyrophosphate (PerkinElmer, Waltham, Mass.) prepared to 1 MBq/mL. After incubation at room temperature for 30 min, the reaction was discontinued by adding 50 μL of discontinuation/washing solution (1M HCl, 200 mM sodium pyrophosphate) to the reaction mixture. The reaction solution was transferred to a filter plate (Merck Millipore, Billerica, Mass.) previously added with 200 μL of charcoal solution (0.5% HCl solution containing 10% charcoal (w/v)). […]

Take `N#C[C@@]1(C2CC2)CCN(c2ccnc(NC(=O)Cc3ccc(Cl)s3)c2)C1=O` [Example 17, 2-(5-chloro-2-thienyl)-N-(4-((3S)-3-cyano-3-cyclopropyl-2-oxopyrrolidin-1-yl)pyridin-2-yl)acetamide]: the inhibition at 0.3 µM was 83%.

On to `N#C[C@@]1(C2CC2)CCN(c2cc(NC(=O)Cc3ccccc3)ncn2)C1=O` [Example 127, N-(6-((3S)-3-cyano-3-cyclopropyl-2-oxopyrrolidin-1-yl)pyrimidin-4-yl)-2-phenylacetamide], for which the inhibition at 0.3 µM is 65%.

As for `Cc1cc(N2CCC(C)(C)C2=O)cc(NC(=O)Cc2cccc(-c3cnn(C)c3)c2)n1` [Example 49, N-(4-(3,3-dimethyl-2-oxopyrrolidin-1-yl)-6-methylpyridin-2-yl)-2-(3-(1-methyl-1H-pyrazol-4-yl)phenyl)acetamide], the inhibition at 0.3 µM stood at 83%.

As for `N#C[C@@]1(C2CC2)CCN(c2ccnc(NC(=O)Cc3cccc4ccccc34)n2)C1=O` [Example 128, N-(4-((3S)-3-cyano-3-cyclopropyl-2-oxopyrrolidin-1-yl)pyrimidin-2-yl)-2-(1-naphthyl)acetamide], the inhibition at 0.3 µM worked out at 95%.

Take `Cc1cc(N2CC[C@@](C#N)(C3CC3)C2=O)nc(NC(=O)Cc2ccccc2)n1` [Example 131, N-(4-((3S)-3-cyano-3-cyclopropyl-2-oxopyrrolidin-1-yl)-6-methylpyrimidin-2-yl)-2-phenylacetamide]: the inhibition at 0.3 µM is 89%.

For the molecule `N#C[C@@]1(C2CC2)CCN(c2ccnc(NC(=O)Cc3cccs3)c2)C1=O` [Example 16, N-(4-((3S)-3-cyano-3-cyclopropyl-2-oxopyrrolidin-1-yl)pyridin-2-yl)-2-(2-thienyl)acetamide], the inhibition at 0.3 µM was determined as 88%.

For the molecule `N#C[C@@]1(C2CC2)CCN(c2ccnc(NC(=O)Cc3cccc(-c4cnn(CC5CCCO5)c4)c3)c2)C1=O` (stereo partly drawn) [Example 76, N-(4-((3S)-3-cyano-3-cyclopropyl-2-oxopyrrolidin-1-yl)pyridin-2-yl)-2-(3-(1-(tetrahydrofuran-2-ylmethyl)-1H-pyrazol-4-yl)phenyl)acetamide], the inhibition at 0.3 µM is 98%.

For `N#C[C@@]1(C2CC2)CCN(c2ccnc(NC(=O)Cc3cccc(-c4cnn(CCc5ccccc5)c4)c3)c2)C1=O` [Example 88, N-(4-((3S)-3-cyano-3-cyclopropyl-2-oxopyrrolidin-1-yl)pyridin-2-yl)-2-(3-(1-(2-phenylethyl)-1H-pyrazol-4-yl)phenyl)acetamide], the inhibition at 0.3 µM is 97%.

Consider `N#C[C@@]1(C2CC2)CCN(c2ccnc(NC(=O)Cc3cccc(-c4cnn(CCn5cccn5)c4)c3)c2)C1=O` [Example 80, N-(4-((3S)-3-cyano-3-cyclopropyl-2-oxopyrrolidin-1-yl)pyridin-2-yl)-2-(3-(1-(2-(1H-pyrazol-1-yl)ethyl)-1H-pyrazol-4-yl)phenyl)acetamide], for which the inhibition at 0.3 µM is 98%.

For `N#C[C@@]1(C2CC2)CCN(c2ccnc(NC(=O)Cc3cccc(-c4cnn(CCn5ccnc5)c4)c3)c2)C1=O` [Example 81, N-(4-((3S)-3-cyano-3-cyclopropyl-2-oxopyrrolidin-1-yl)pyridin-2-yl)-2-(3-(1-(2-(1H-imidazol-1-yl)ethyl)-1H-pyrazol-4-yl)phenyl)acetamide], the inhibition at 0.3 µM was found to be 97%.

As to `N#C[C@@]1(C2CC2)CCN(c2ccnc(NC(=O)Cc3cccc(-c4cnn(CC5CCCC5)c4)c3)c2)C1=O` [Example 75, N-(4-((3S)-3-cyano-3-cyclopropyl-2-oxopyrrolidin-1-yl)pyridin-2-yl)-2-(3-(1-(cyclopentylmethyl)-1H-pyrazol-4-yl)phenyl)acetamide], the inhibition at 0.3 µM stood at 97%.

`C=CC[C@]1(C#N)CCN(c2ccnc(NC(=O)Cc3cccc(-c4ccncc4)c3)c2)C1=O` [Example 25, N-(4-((3R)-3-allyl-3-cyano-2-oxopyrrolidin-1-yl)pyridin-2-yl)-2-(3-(pyridin-4-yl)phenyl)acetamide]: the inhibition at 0.3 µM was 61%.

As for `N#C[C@@]1(C2CC2)CCN(c2ccnc(NC(=O)Cc3cccc(Cl)c3)c2)C1=O` [Example 1, 2-(3-chlorophenyl)-N-(4-((3S)-3-cyano-3-cyclopropyl-2-oxopyrrolidin-1-yl)pyridin-2-yl)acetamide], the inhibition at 0.3 µM was found to be 84%.

As to `N#C[C@@]1(C2CC2)CCN(c2ccnc(NC(=O)Cc3cccc4ccccc34)c2)C1=O` [Example 3, N-(4-((3S)-3-cyano-3-cyclopropyl-2-oxopyrrolidin-1-yl)pyridin-2-yl)-2-(1-naphthyl)acetamide], the inhibition at 0.3 µM was 93%.

`N#C[C@@]1(C2CC2)CCN(c2ccnc(NC(=O)Cc3cccc(-c4cnn(CC(C(F)(F)F)C(F)(F)F)c4)c3)c2)C1=O` [Example 92, N-(4-((3S)-3-cyano-3-cyclopropyl-2-oxopyrrolidin-1-yl)pyridin-2-yl)-2-(3-(1-(3,3,3-trifluoro-2-(trifluoromethyl)propyl)-1H-pyrazol-4-yl)phenyl)acetamide]: the inhibition at 0.3 µM turned out to be 93%.

Regarding `COC(=O)Cn1cc(-c2cccc(CC(=O)Nc3cc(N4CC[C@@](C#N)(C5CC5)C4=O)ccn3)c2)cn1` [Example 73, methyl (4-(3-(2-((4-((3S)-3-cyano-3-cyclopropyl-2-oxopyrrolidin-1-yl)pyridin-2-yl)amino)-2-oxoethyl)phenyl)-1H-pyrazol-1-yl)acetate], the inhibition at 0.3 µM was found to be 99%.

For `N#C[C@@]1(C2CC2)CCN(c2ccnc(NC(=O)Cc3cccc(-c4cnn(CC(N)=O)c4)c3)c2)C1=O` [Example 69, 2-(3-(1-(2-amino-2-oxoethyl)-1H-pyrazol-4-yl)phenyl)-N-(4-((3S)-3-cyano-3-cyclopropyl-2-oxopyrrolidin-1-yl)pyridin-2-yl)acetamide], the inhibition at 0.3 µM amounted to 99%.

As to `N#C[C@@]1(C2CC2)CCN(c2ccnc(NC(=O)Cc3cccc(Cl)c3)n2)C1=O` [Example 129, 2-(3-chlorophenyl)-N-(4-((3S)-3-cyano-3-cyclopropyl-2-oxopyrrolidin-1-yl)pyrimidin-2-yl)acetamide], the inhibition at 0.3 µM was 87%.

With `Cc1cccc(CC(=O)Nc2cc(N3CC[C@@](C#N)(C4CC4)C3=O)ccn2)c1` [Example 11, N-(4-((3S)-3-cyano-3-cyclopropyl-2-oxopyrrolidin-1-yl)pyridin-2-yl)-2-(3-methylphenyl)acetamide], the inhibition at 0.3 µM stood at 85%.
